Assay results: US10227331B2 (priority 2015, dated 2019)
pIC50: −log10 of the molar value.

Columns and labels:
VIM-1 = VIM-1 (Pseudomonas aeruginosa (strain ATCC 15692 / DSM 22644 / CIP 104116 / JCM 14847 / LMG 12228 / 1C / PRS 101 / PAO1), UniProt A0A0F7KYQ8); assay: biochemical; conditions: CCF2-FA substrate, 2 hours at 25° C
Method: (§1) Enzyme Activity: Determination of IC50
(§2) The Class B enzyme activities were measured in the presence of the test inhibitor in a fluorescence assay against a commercially available substrate consisting of a cephalosporin core linking 7-hydroxycoumarin to fluorescein (CCF2-FA). […] In a 384-well microplate, the test inhibitor was incubated with the metallo-β-lactamase enzyme and the substrate for 2 hours at 25° C. […] The IC50 value was determined from semi-logarithmic plots of enzyme inhibition versus inhibitor concentration, with a curve generated using a 4-parameter fit.

[1] = test system: Klebsiella pneumoniae expressing VIM-1 (IHMA599644); assay type: cell-based; conditions: with imipenem 1 μg/ml, 95% inhibition of bacterial growth; for Klebsiella pneumoniae MITC95: VIM-1 (IHMA599644)
Method: (§3) Antibiotic Potentiation Activity: Determination of Synergistic Concentration
(§4) The bacterial strains tested included the clinical strains Escherichia coli expressing NDM-1 (CLB30005, CLB30016), Serratia marcescens expressing IMP-1 (CL5741), and Klebsiella pneumoniae expressing VIM-1 (IHMA599644). Inhibitor activity was measured in the presence and absence of imipenem in a 384-well microplate.
(§5) The clinical strains CLB30016, CL5741 and IHMA599644 were grown on trypticase soy agar containing 5% sheep's blood. The bacteria on agar plates were incubated at 35° C. with humidity overnight. The following day, individual colonies from each clinical strain were picked and resuspended in 5 ml saline to attain an OD600 of […], for CLB30016, CL5741 and IHMA599644, respectively. These were further diluted 1:100 into 1.1×CAMHB and used to inoculate the test wells as described below.
(§6) Imipenem in 10 mM 3-(N-morpholino)propanesulfonic acid (MOPS, pH 7) was stored in single use aliquots at −80° C. […] On the day of the assay, 4 μl of antibiotic was added to 45 ul of bacteria followed by 1 μl of test compound and mixed by pipetting and with an orbital shaker. The concentration of antibiotic used in the assay was 1 μg/ml. Microplates were covered and incubated at 35° C. for 22 hours to 24 hours. At the end of the incubation, absorbance was determined using a spectrophotometer.
(§7) For example, in general, the compounds of Examples 1-379 were determined to restore susceptibility to imipenem for one or more of the test organisms at concentrations of 100 μM or less.

[2] = test system: Escherichia coli expressing NDM-1 (CLB30005, CLB30016); assay type: cell-based; conditions: with imipenem 1 μg/ml, 95% inhibition of bacterial growth; for Escherichia coli MITC95: NDM-1 (CLB30016)
Method: as §3, §4, §5, §6, §7

[3] = test system: Serratia marcescens expressing IMP-1 (CL5741); assay type: cell-based; conditions: with imipenem 1 μg/ml, 95% inhibition of bacterial growth; for Serratia marcescens MITC95: IMP-1 (CL5741)
Method: as §3, §4, §5, §6, §7

NDM-1 = NDM-1 (Klebsiella pneumoniae, UniProt C7C422); assay: biochemical; assay type: biochemical; conditions: CCF2-FA substrate, 2 hours at 25° C; read-out: NDM-1 IC50
Method: as §1, §2

IMP-1 = IMP-1 (Serratia marcescens, UniProt P52699); assay: biochemical; assay type: biochemical; conditions: CCF2-FA substrate, 2 hours at 25° C; read-out: IMP-1 IC50
Method: as §1, §2

[4] = test system: P. aeruginosa expressing IMP-1, efflux+ (MB9798); assay type: cell-based, Pseudomonas aeruginosa; conditions: for P. aeruginosa expressing IMP-1, efflux+ (MB9798) MITC95: imipenem at 2 μg/mL, in the presence of a class A, C, D serine β-lactamase inhibitor closely related to relebactam; for Efflux ratio: ratio MITC95 PA_9798/MITC95 PA_9799
Description: (§8) The strain background is Pseudomonas aeruginosa PAO1.

[5] = test system: P. aeruginosa expressing IMP-1, efflux− (MB9799); assay: Efflux: concentration of MBL inhibitor which restores susceptibility to imipenem; assay type: cell-based, Pseudomonas aeruginosa; conditions: imipenem at 2 μg/mL, in the presence of a class A, C, D serine β-lactamase inhibitor closely related to relebactam
Description: as §8

NDM-1, sequence (C7C422 whole entry, looked up, species assumed): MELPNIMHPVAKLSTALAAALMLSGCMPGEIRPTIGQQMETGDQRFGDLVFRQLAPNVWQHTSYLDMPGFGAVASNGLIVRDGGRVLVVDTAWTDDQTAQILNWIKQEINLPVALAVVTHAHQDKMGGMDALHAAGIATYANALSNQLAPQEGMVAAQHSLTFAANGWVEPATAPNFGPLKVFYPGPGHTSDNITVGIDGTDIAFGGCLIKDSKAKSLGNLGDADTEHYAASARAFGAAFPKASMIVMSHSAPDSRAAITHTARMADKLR
IMP-1, sequence (P52699 whole entry, looked up, species assumed): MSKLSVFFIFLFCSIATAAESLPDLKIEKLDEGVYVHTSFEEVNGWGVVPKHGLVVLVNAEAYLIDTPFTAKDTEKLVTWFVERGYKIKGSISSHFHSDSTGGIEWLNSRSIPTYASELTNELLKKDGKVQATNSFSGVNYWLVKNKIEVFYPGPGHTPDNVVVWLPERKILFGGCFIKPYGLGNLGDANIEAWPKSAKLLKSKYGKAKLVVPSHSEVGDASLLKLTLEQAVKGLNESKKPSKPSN

Compound	pIC50 (VIM-1)	Klebsiella pneumoniae expressing VIM-1 (IHMA599644) MITC95 [1] [µM]	Escherichia coli expressing NDM-1 (CLB30016) MITC95 [2] [µM]	Serratia marcescens expressing IMP-1 (CL5741) MITC95 [3] [µM]	pIC50 (NDM-1)	pIC50 (IMP-1)	P. aeruginosa expressing IMP-1, efflux+ (MB9798) MITC95 [4] [µM]	Efflux ratio [4]	P. aeruginosa expressing IMP-1, efflux− (MB9799) MITC95 [5] [µM]	Klebsiella pneumoniae MITC95 [1] [µM]	Escherichia coli MITC95 [2] [µM]	Serratia marcescens MITC95 [3] [µM]
Nc1ccc(-c2ccc([S+]([O-])C3CCNCC3)c(S(N)(=O)=O)c2-c2nn[nH]n2)cn1 (stereo not drawn) [Example 10, 3-(6-aminopyridin-3-yl)-6-(piperidin-4-ylsulfinyl)-2-(2H-tetrazol-5-yl)benzenesulfonamide]	8.19	6.25	6.25	6.25	8.50	7.56	6.25	2.00	3.125			
NCCc1nc2c(-c3ccc(S(=O)(=O)CCN)c(S(N)(=O)=O)c3-c3nn[nH]n3)cccc2[nH]1 [Example 306, 3-(2-(2-aminoethyl)-1H-benzo[d]imidazol-4-yl)-6-((2-aminoethyl)sulfonyl)-2-(2H-tetrazol-5-yl) benzenesulfonamide]	9.43				9.07	8.55	1.563	2.00	0.7813	1.563	0.7813	0.7813
C[C@H](CN)S(=O)(=O)c1ccc(-c2cccc3nc(N)[nH]c23)c(-c2nn[nH]n2)c1S(N)(=O)=O [Example 277, 3-(2-amino-3H-benzo[d]imidazol-4-yl)-6-((R)-1-aminopropan-2-ylsulfonyl)-2-(2H-tetrazol-5-yl)benzenesulfonamide]	9.44				9.28	8.86	1.563	2.00	0.7813	1.563	0.3906	0.7813
C[C@H](N)CS(=O)(=O)c1ccc(-c2cccc3[nH]c(N)nc23)c(-c2nn[nH]n2)c1S(N)(=O)=O [Example 92, 3-(2-amino-1H-benzo[d]imidazol-4-yl)-6-((S)-2-aminopropylsulfonyl)-2-(2H-tetrazol-5-yl)benzenesulfonamide]	9.65	0.8542	0.2969	0.6406	9.85	9.21	0.4777	0.81	0.5893			
NCCS(=O)(=O)c1ccc(-c2cccc(C(=O)N[C@@H]3CCNC3)c2N)c(-c2nn[nH]n2)c1S(N)(=O)=O [Example 377, (R)-2-amino-4′-((2-aminoethyl)sulfonyl)-N-(pyrrolidin-3-yl)-3′-sulfamoyl-2′-(2H-tetrazol-5-yl)-[1,1′-biphenyl]-3-carboxamide]	9.17				8.75	8.73	3.125	2.00	1.563	3.125	1.563	1.563
NS(=O)(=O)c1c(S(=O)(=O)C2CNC2)ccc(-c2cnc3ccccc3c2)c1-c1nnn[nH]1.O=C(O)C(F)(F)F [Example 98, 3-((4-(quinolin-3-yl)-2-sulfamoyl-3-(1H-tetrazol-5-yl)phenyl)sulfonyl)azetidin-1-ium 2,2,2-trifluoroacetate]	9.62	3.125	3.125	3.125	9.40	8.70	25	15.99	1.563			
NCCS(=O)(=O)c1ccc(-c2ccc3nncn3c2)c(-c2nnn[nH]2)c1S(N)(=O)=O.O=C(O)C(F)(F)F [Example 146, 2-((4-([1,2,4]triazolo[4,3-a]pyridin-6-yl)-2-sulfamoyl-3-(1H-tetrazol-5-yl)phenyl)sulfonyl)ethanaminium 2,2,2-trifluoroacetate]	8.88	6.25	0.7813	3.125	7.69	7.35	100	63.98	1.563			
Cn1c(N)nc2cccc(-c3ccc(S(=O)(=O)C4CNC4)c(S(N)(=O)=O)c3-c3nn[nH]n3)c21 [Example 19, 3-(2-Amino-1-methyl-1H-benzo[d]imidazol-7-yl)-6-(azetidin-3-ylsulfonyl)-2-(2H-tetrazol-5-yl)benzenesulfonamide]	9.82	1.563	0.7813	1.563	9.96	8.60	6.25	4.00	1.563			
N[C@@H](CO)CS(=O)(=O)c1ccc(-c2cccc3[nH]cnc23)c(-c2nn[nH]n2)c1S(N)(=O)=O [Example 357, (S)-6-((2-amino-3-hydroxypropyl)sulfonyl)-3-(1H-benzo[d]imidazol-4-yl)-2-(2H-tetrazol-5-yl) benzenesulfonamide]	9.60				9.79	9.53	0.7813	0.50	1.563	3.125	1.563	1.563
N=C(N)c1nc2c(-c3ccc(S(=O)(=O)CCN)c(S(N)(=O)=O)c3-c3nn[nH]n3)cccc2s1 [Example 86, 4-(4-(2-aminoethylsulfonyl)-3-sulfamoyl-2-(2H-tetrazol-5-yl)phenyl)benzo[d]thiazole-2-carboximidamide]	9.85	0.7813	0.7813	0.7813	9.53	9.06	1.563	4.00	0.3906			
NCCS(=O)(=O)c1ccc(-c2cnc(O)nc2)c(-c2nnn[nH]2)c1S(N)(=O)=O.O=C(O)C(F)(F)F [Example 137, 2-((4-(2-hydroxypyrimidin-5-yl)-2-sulfamoyl-3-(1H-tetrazol-5-yl)phenyl)sulfonyl)ethanaminium 2,2,2-trifluoroacetate]	7.63	3.125	0.7813	1.563	7.77	7.49	25	15.99	1.563			
